One experiment concerns the target T1, GLUT2 (Homo sapiens, UniProt P11168).
T1 construct: host or cells: DLD1 or CHO-K1
T1 sequence (P11168 1-524): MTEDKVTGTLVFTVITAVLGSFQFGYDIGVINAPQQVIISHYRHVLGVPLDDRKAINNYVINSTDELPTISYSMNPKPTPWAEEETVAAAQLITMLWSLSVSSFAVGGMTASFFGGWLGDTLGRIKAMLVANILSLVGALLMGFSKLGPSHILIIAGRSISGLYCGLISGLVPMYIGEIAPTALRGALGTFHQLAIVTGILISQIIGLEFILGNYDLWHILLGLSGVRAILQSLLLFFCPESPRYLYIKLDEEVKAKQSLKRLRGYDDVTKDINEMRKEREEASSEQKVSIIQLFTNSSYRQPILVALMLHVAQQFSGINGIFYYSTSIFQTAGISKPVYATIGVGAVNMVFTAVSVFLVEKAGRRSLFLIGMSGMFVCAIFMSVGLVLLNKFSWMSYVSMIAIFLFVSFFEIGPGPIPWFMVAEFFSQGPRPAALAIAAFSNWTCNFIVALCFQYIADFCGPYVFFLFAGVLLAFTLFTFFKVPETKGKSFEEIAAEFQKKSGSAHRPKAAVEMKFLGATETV
The experiment can be described thus: Indirect measurement of GLUT2 activity by quantification of intracellular ATP levels (fructose induced ATP increase). The class given is cell-based. The settings on record: 10 mM fructose, 1 μM Rotenone, 15 min; CellTiter-Glo ATP readout; read-out: IC50 regarding fructose induced ATP increase (GLUT2 inhibition). The text has this:
Indirect Measurement of GLUT1 and GLUT2 Activity by Quantification of Intracellular ATP Levels
It is well known that a combination of small-molecule inhibitors of mitochondrial electron transport chain and glucose catabolism synergistically suppress ATP production and impair cellular viability (Ulanovskaya et al., 2008, 2011; Liu, et al. 2001). We therefore used DLD1 or CHO-K1 cells in combination with an oxidative phosphorylation inhibitor to identify GLUT1 and GLUT2 inhibitors. Cell lines were maintained in DMEM medium supplemented with 10% FCS and 1% Penicillin-Streptomycin solution and 2% Glutamax. The cells were treated with trypsin and seeded into 384 plates at a density of 4000 cells/well. The cells were then cultured overnight in glucose free media containing 1% FCS to reduce intracellular ATP levels. […] The CellTiter-Glo® Luminescent Cell Viability Assay from Promega was then used to measure ATP Levels.
(In general: Cellular ATP, detected with luciferase, serves as a proxy for viable cell number.)

A further experiment has as its target T2, GLUT1 (Homo sapiens, UniProt P11166).
T2 sequence (P11166 1-492): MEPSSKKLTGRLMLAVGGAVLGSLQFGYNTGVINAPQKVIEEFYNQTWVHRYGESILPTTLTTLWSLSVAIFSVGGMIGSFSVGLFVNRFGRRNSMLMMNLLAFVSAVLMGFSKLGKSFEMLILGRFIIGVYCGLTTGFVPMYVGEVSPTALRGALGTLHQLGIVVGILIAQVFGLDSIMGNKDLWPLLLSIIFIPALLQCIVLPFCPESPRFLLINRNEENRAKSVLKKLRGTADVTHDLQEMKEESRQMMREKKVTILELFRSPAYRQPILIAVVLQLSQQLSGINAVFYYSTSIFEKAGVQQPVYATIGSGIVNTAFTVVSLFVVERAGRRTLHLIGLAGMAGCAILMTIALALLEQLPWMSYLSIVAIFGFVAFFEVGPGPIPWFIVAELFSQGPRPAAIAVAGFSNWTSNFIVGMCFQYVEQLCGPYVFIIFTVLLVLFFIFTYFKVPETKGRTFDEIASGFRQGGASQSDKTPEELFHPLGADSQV
The experiment can be described thus: Indirect measurement of GLUT1 activity by quantification of intracellular ATP levels (glucose induced ATP increase). The experiment is classed as cell-based. Also noted: endogenous in cells; host or cells: DLD1 or CHO-K1. The settings on record: read-out: IC50 regarding glucose induced ATP increase (GLUT1 inhibition). A digest of the protocol:
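DLD1 or CHO-K1 cells were starved overnight in glucose-free medium with 1% FCS, then combined with an oxidative phosphorylation inhibitor. GLUT1 activity was read as glucose-induced ATP increase, GLUT2 as fructose-induced. Intracellular ATP was quantified by CellTiter-Glo luminescence.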

Structures are written as SMILES. pIC50: −log10 of the molar value.

As for `CCc1noc(Cn2nc(C)c(NC(=O)c3cc(C(N)=O)nc4ccccc34)c2C)n1` [Example 1571], the results for the pIC50 at GLUT2 and at GLUT1 were 4.44 and 7.19, respectively. With `CNC(=O)c1nc(Cn2nc(C(F)(F)F)c(NC(=O)c3cc(C(N)=O)nc4cc(F)c(Cl)cc34)c2C)no1` [Example 1558], the values for the negative logarithm of the IC50 (pIC50) at GLUT2 and on GLUT1 were 4.29 and 7.92, respectively. For `COc1cc(C(=O)Nc2c(C)nn(Cc3ccc(C#N)cc3)c2C)c2ccccc2n1` [Example 15, N-[1-(4-cyanobenzyl)-3,5-dimethyl-1H-pyrazol-4-yl]-2-methoxyquinoline-4-carboxamide], the negative logarithm of the IC50 (pIC50) (as a rule, the IC50 on a negative log10 scale, so that one unit is a factor of ten) on GLUT2 is 4.07; on GLUT1 it was 7.94. In the case of `Cc1nn(Cc2ccc(CN(C)C)cc2)c(C)c1NC(=O)c1cc(C(N)=O)nc2cc(F)ccc12` [Example 388, N^4-(1-{4-[(dimethylamino)methyl]benzyl}-3,5-dimethyl-1H-pyrazol-4-yl)-7-fluoroquinoline-2,4-dicarboxamide], the pIC50 at GLUT2 was 4.29; on GLUT1 it was 6.97. In the case of `Cc1nn(Cc2ccc(C#N)cn2)c(C)c1NC(=O)c1cc(C(N)=O)nc2cccc(F)c12` [Example 352, N^4-{1-[(5-cyanopyridin-2-yl)methyl]-3,5-dimethyl-1H-pyrazol-4-yl}-5-fluoroquinoline-2,4-dicarboxamide], the pIC50 was 4.35 on GLUT2 and 8.60 at GLUT1.

As for `CCS(=O)(=O)N1CCC(Cn2nc(C)c(NC(=O)c3cc(C(N)=O)nc4cc(F)c(Cl)cc34)c2C)CC1` [Example 415, 6-chloro-N^4-(1-{[1-(ethylsulfonyl)piperidin-4-yl]methyl}-3,5-dimethyl-1H-pyrazol-4-yl)-7-fluoroquinoline-2,4-dicarboxamide], the values for the pIC50 on GLUT2 and at GLUT1 were 4.74 and 8.00, respectively. Consider `Cc1nn(Cc2ccc(F)cc2)c(C)c1NC(=O)c1cc(C(F)(F)F)nc2cc(Br)ccc12` [Example 88, 7-bromo-N-[1-(4-fluorobenzyl)-3,5-dimethyl-1H-pyrazol-4-yl]-2-(trifluoromethyl)quinoline-4-carboxamide], for which the pIC50 on GLUT1 was 6.55.

`CCc1c(NC(=O)c2cc(C(N)=O)nc3ccccc23)c(C)nn1Cc1ccc(C#N)cc1` [Example 326, N^4-[1-(4-cyanobenzyl)-5-ethyl-3-methyl-1H-pyrazol-4-yl]quinoline-2,4-dicarboxamide]: the pIC50 at GLUT1 was 7.84.

`Cc1nonc1Cn1nc(C)c(NC(=O)c2cc(C(N)=O)nc3ccccc23)c1C` [Example 1515]: the pIC50 on GLUT1 is 6.50. On the same count and under the same terms, under `Cc1c(NC(=O)c2cc(C(N)=O)nc3cc(F)c(Cl)cc23)c(C(F)(F)F)nn1Cc1cc(C#N)no1` [Example 1673] stands 7.25; under `Cc1nn(Cc2ccc(C#N)cc2)c(C)c1NC(=O)c1cc(C(=O)N2CCC2)nc2cc(F)ccc12` [Example 1428], 7.91. Still for that read-out and setting: under `Cc1nn(Cc2ccccc2C#N)c(C)c1NC(=O)c1cc(C(C)C)nc2ccc(Br)cc12` [Example 118, 6-bromo-N-[1-(2-cyanobenzyl)-3,5-dimethyl-1H-pyrazol-4-yl]-2-(propan-2-yl)quinoline-4-carboxamide] stands 9.30; under `COc1cccc(Cn2nc(C(F)(F)F)c(NC(=O)c3cc(C(N)=O)nc4cccc(F)c34)c2C)c1` [Example 1449], 7.73.

`Cc1nn(Cc2ccc(F)cc2)c(C(=O)N(C)C)c1NC(=O)c1cc(C(F)(F)F)nc2ccc(Br)cc12` [Example 1180]: the pIC50 at GLUT1 is 6.64.

For `Cc1c(NC(=O)c2cc(C(N)=O)nc3cccc(F)c23)c(C(F)(F)F)nn1Cc1ccc(C#N)cn1` [Example 363, N^4-{1-[(5-cyanopyridin-2-yl)methyl]-5-methyl-3-(trifluoromethyl)-1H-pyrazol-4-yl}-5-fluoroquinoline-2,4-dicarboxamide], the pIC50 on GLUT1 is 8.22. On the same count and under the same terms, under `Cc1c(NC(=O)c2cc(C(N)=O)nc3ccc(Cl)cc23)c(C(F)(F)F)nn1Cc1ccc(C#N)cc1` [Example 248, 6-chloro-N^4-[1-(4-cyanobenzyl)-5-methyl-3-(trifluoromethyl)-1H-pyrazol-4-yl]quinoline-2,4-dicarboxamide] stands 9.22; under `Cc1c(NC(=O)c2cc(C(N)=O)nc3cccc(F)c23)c(C(F)(F)F)nn1Cc1ccc(OC(F)(F)F)cc1` [Example 1467], 8.12; under `Cc1c(NC(=O)c2cc(C(F)(F)F)nc3cc(F)c(F)cc23)c(C(F)(F)F)nn1Cc1ccc(F)c(F)c1` [Example 207, N-[1-(3,4-difluorobenzyl)-5-methyl-3-(trifluoromethyl)-1H-pyrazol-4-yl]-6,7-difluoro-2-(trifluoromethyl)quinoline-4-carboxamide], 6.16. Same read-out and setting: under `Cc1nn(Cc2ccc(C#N)cc2)c(C)c1NC(=O)c1cc(C(N)=O)nc2c(Cl)cccc12` [Example 255, 8-chloro-N^4-[1-(4-cyanobenzyl)-3,5-dimethyl-1H-pyrazol-4-yl]quinoline-2,4-dicarboxamide] stands 8.85. As to `Cc1c(NC(=O)c2cc(C(N)=O)nc3c(F)cc(Cl)cc23)c(C(F)(F)F)nn1Cc1ccc(C#N)cc1` [Example 241, 6-chloro-N^4-[1-(4-cyanobenzyl)-5-methyl-3-(trifluoromethyl)-1H-pyrazol-4-yl]-8-fluoroquinoline-2,4-dicarboxamide], the pIC50 on GLUT1 was 8.96. Still for that read-out and setting: then `CC(=O)N1CCC(Cn2nc(C)c(NC(=O)c3cc(C(F)(F)F)nc4ccc(Br)cc34)c2C)CC1` [Example 1156], with 6.83. Turning to `Cc1nn(CCCc2ccc(C#N)cc2)c(C)c1NC(=O)c1cc(C(N)=O)nc2ccccc12` [Example 347, N^4-{1-[3-(4-cyanophenyl)propyl]-3,5-dimethyl-1H-pyrazol-4-yl}quinoline-2,4-dicarboxamide], the pIC50 on GLUT1 was 8.66. Still for that read-out and setting: under `Cc1nn(Cc2ccc(C#N)cc2F)c(C)c1NC(=O)c1cc(C(N)=O)nc2ccc(Br)cc12` [Example 299, 6-bromo-N^4-[1-(4-cyano-2-fluorobenzyl)-3,5-dimethyl-1H-pyrazol-4-yl]quinoline-2,4-dicarboxamide] stands 8.17; under `Cc1nn(CC2CNC(=O)O2)c(C)c1NC(=O)c1cc(C(N)=O)nc2ccccc12` (centres unmarked) [Example 1347], 5.40. As for `Cc1nn(Cc2ccc(CC(=O)NCCO)cc2)c(C)c1NC(=O)c1cc(C(F)(F)F)nc2ccc(Br)cc12` [Example 159, 6-bromo-N-[1-(4-{2-[(2-hydroxyethyl)amino]-2-oxoethyl}benzyl)-3,5-dimethyl-1H-pyrazol-4-yl]-2-(trifluoromethyl)quinoline-4-carboxamide], at GLUT1, the pIC50 is 6.06. Still for that read-out and setting: then `Cc1nn(Cc2ccc(C(=O)NCC3(C)COC3)cn2)c(C)c1NC(=O)c1cc(C(F)(F)F)nc2ccc(Br)cc12` [Example 1159], with 6.80; and `COc1cc(Cn2nc(C(F)(F)F)c(NC(=O)c3cc(C(N)=O)nc4cccc(F)c34)c2C)ccc1C#N` [Example 1665], with 8.42. On the same count and under the same terms, then `CCOC(=O)N=S(C)(=O)c1ccc(Cn2nc(C)c(NC(=O)c3cc(C(F)(F)F)nc4ccc(Br)cc34)c2C)cc1` (racemic) [Example 1433], with 6.14; and `Cc1ccc2nc(C)cc(C(=O)Nc3c(C)nn(CC4CCCCC4)c3C)c2c1` [Example 206, N-[1-(cyclohexylmethyl)-3,5-dimethyl-1H-pyrazol-4-yl]-2,6-dimethylquinoline-4-carboxamide], with 6.18.

The values are drawn from patent publication US20170037028A1 (BAYER PHARMA AKTIENGESELLSCHAFT, priority 2013, published 2017).
